Entries after “also recorded” stand apart in the source; their conditions may differ.
Tests used:
[1] = tested on: ascites cells obtained during an operation of a patient with endometrial cancer; assay: Live-cell fluorescence imaging of ascites cells, endometrial cancer patient, reactive mesothelial cells (Example 3); format: cell-based, human; settings: cell population in region of interest, apparent reactive mesothelial cells on Papanicolaou staining; 100 μM 2-NBDLG and 20 μM 2TRLG; FIG. 5A
Procedure: Immediately after the start of laparotomy for endometrial cancer, the peritoneal cavity was washed with physiological saline in the same manner as in Example 1 to obtain a peritoneal washing, which was then added to a 50 mL centrifuge tube having 5 mL of the Hanks solution in advance. The resulting ascitic fluid suspension was centrifuged at 1500 G for 2 minutes at room temperature, and then the supernatant was removed with a dropper. Some of the resulting pellet was set aside for cytodiagnosis tests at the hospital's pathology department, and the rest was dispersed into 15 mL of a KRB solution in a 15 mL centrifuge tube, then again centrifuged at 1500 G for 2 minutes at room temperature, and the supernatant was removed with a dropper. The pellet primarily includes red blood cells, and a large amount of red blood cells may obscure the target cells, interfering with microscopy. […]
An ×2 fLG solution prepared as in Example 1 (2-1) in an amount of 1 mL was added and mixed, and the cells was exposed to fLG for 5 minutes in a 37° C. water bath. […] Bright field image: high sensitivity, transmitted illumination intensity 25, aperture stop 20%, exposure time 1/500 s • Green fluorescence image: high sensitivity, excitation light intensity 100%, exposure time 1/4 s • Red fluorescence image: high sensitivity, excitation light intensity 10%, exposure time 1/10 s • (Experiment Results)

[2] = tested on: ascites cells obtained during an operation of a patient with endometrial cancer (endometrioid adenocarcinoma); assay: Live-cell fluorescence imaging of ascites cells, endometrial cancer patient, with later Papanicolaou staining (Example 2); format: cell-based, human
Procedure: Immediately after the start of laparotomy for endometrial cancer (endometrioid adenocarcinoma), the peritoneal cavity was washed with physiological saline in the same manner as in Example 1 to obtain a peritoneal washing, which was then added to a 50 mL centrifuge tube having 5 mL of the Hanks solution in advance. The resulting ascitic fluid suspension was centrifuged at […] for 2 minutes at room temperature, and the supernatant was removed by decantation. Subsequently, 30 mL of a commercially available solution of ammonium chloride for hemolysis was added, and allowed to stand for 2 minutes, and then centrifuged at 1500 G for 2 minutes at room temperature, and the supernatant was then removed by decantation. Some of the resulting pellet was set aside for cytodiagnosis tests at the hospital's pathology department, and the rest was further divided into 2 portions, each of which was dispersed into 40 mL of a KRB solution in 50 mL centrifuge tubes, and stored at room temperature an a dark place until application of fLG on the next day. […]
Observation and image acquisition were performed about 22 hours after obtaining ascites cells using the same instruments as in Example 1. […] Subsequently, a bright-field image and fluorescence images of the target cells were obtained using a high-power lens, and positional information on the stage was registered using a software dedicated for BZ-X700. […]

O=C[C@@H](Nc1ccc([N+](=O)[O-])c2nonc12)[C@H](O)[C@@H](O)[C@@H](O)CO [2-NBDLG, 2-[N-(7-nitrobenz-2-oxa-1,3-diazole-4-yl)amino]-2-deoxy-L-glucose]
fluorescence from 2-NBDLG (green wavelength region) [1]: shows fluorescence | intracellular localisation of 2-NBDLG uptake ([2]; Cluster 1, FIG. 4A): taken up into the cytoplasmic portion except for the nucleus | fluorescence from 2-NBDLG (green wavelength region) ([2]; two cancer-cell clusters (left cluster and Cluster 1), 100 μM 2-NBDLG and 20 μM 2TRLG, fLG applied about 20 hours after sampling, FIG. 3B, 4D): show fluorescence; also recorded: positive
